These results are taken from PMC3804352 (ACS medicinal chemistry letters, 2013).

The test system of one data set is Plasmodium yoelii. As to the kind of experiment: In vivo efficacy in mice infected with Plasmodium yoelii, parasite load by FACS. Set-up: species or system Swiss webster female mice. In general terms: In flow cytometry, cells or beads pass a laser one at a time.
Data set [1] in a line: In vivo pharmacokinetic study, single IV or IP injection to healthy mice.
Data set [2] in a line: Stability in mouse serum at 37 °C. Format: in vitro ADME.
Data set [3] in a line: Metabolism by human liver S9 fraction. In kind it is in vitro ADME.
Data set [4] is described as follows: Metabolism by human liver microsomes. In kind it is in vitro ADME. A general note: Microsomes from liver hold many membrane-bound enzymes, among them those of drug oxidation.
The nature of data set [5]: Stability in human liver cytosolic fraction. Format: in vitro ADME. Particulars: r^2 = 0.24, p = 0.10.
Data set [6] in a line: Solubility in aqueous buffers. Format: physicochemical.
For another data set, the system named is mice. Nature of the data set: Toxicity to mice in efficacy and PK studies. Particulars: dosing regime of efficacy study (5-10 mg/kg once daily) and PK study. In kind it is in vivo.
Data set [7] is classed as in vivo, mice. As to conditions: at the termination of efficacy trials.
The next data set concerns human cancer cells. As to conditions: cited from earlier work.
Another data set relates to P. falciparum. As to conditions: read-out: in vitro IC50; cited from earlier work.
The next data set relates to parasitemia. Particulars: cited from earlier work.
The conditions of data set [8]: in mice; cited from earlier work.
The conditions of data set [9]: cited from earlier work.
For data set [10] the following is noted: in vivo, iv; cited from earlier work.

“Also recorded” adds a separate entry of the source. Where two headings read alike, the source gives them in different places.

By half-life is commonly meant how long it takes for the measured level to halve. Usually CLint scaled stands for the rate of metabolic loss divided by the concentration. A high value points to faster metabolism. The IC50 is the midpoint of a concentration-inhibition curve. On to `CC1=C2Cc3cc(ccc3O)C(=O)O[C@H](C(C)(C)Br)CC[C@](C)(O)[C@H](Br)CC[C@]2(C)[C@@H](Br)CC1` [compound 1, bromophycolide A], for which the “parasitemia in treated mice” value in the data set on Plasmodium yoelii (after the second dose, 10 mg/kg) is recorded as 10.0 ± 0.5%. In the data set with Plasmodium yoelii (dosed at 10 mg/kg, control 32 ± 2 %), the “final parasitemia (FACS)” value amounted to 17 ± 4%. Besides, the bioavailability result in [1] (IP vs IV dosing) is given as “good bioavailability”. The “Cp^0” value in data set [1] (IV, 23 mg/kg, plasma) was 24 ± 6 µg/mL. Moreover, the “loss after incubation in mouse serum” value in [2] (37 °C, 24 h (r^2 = 0.20, p=0.27)) was “no significant loss”. The “stability in mouse serum” value in data set [2] (over 24 h) is given as “stable”. Also, the “metabolism by human liver sub-cellular fractions” value in data set [3] (after 4 h) was “negligible metabolism”. This molecule had a half-life in data set [3] (human, human liver S9 fraction) of 570 ± 48 min. For the same molecule, the CLint scaled at 24 h, 10 µM in [3] (human, human liver S9 fraction, CLint, S9 fraction with UDPGA) was 1.1 ± 0.1 mL/min/kg; in data set [4] (human, human liver microsomes), 1.6 ± 0.5 mL/min/kg. For the same molecule, the “stability in the presence of human microsomes” value in data set [4] (summary statement) is listed as “moderately stable”. For the same molecule, the “stability in the presence of the human liver cytosolic fraction” value in [5] was “stable”. Also, the “solubility in aqueous buffers” value in data set [6] is given as “poor solubility”. The toxicity to mice entry with mice was “lack of mouse toxicity; also recorded: non-toxic”. For the same molecule, the “concentration in blood and plasma of infected mice” value in data set [7] is listed as “below the limit of detection”. The “differential selectivity among eukaryotic cell lines” value in the data set on human cancer cells is on record as 10 fold. Besides, the 50% inhibitory concentration (IC50) in the data set on human cancer cells (human cancer cells) was greater than 6 µM.

Consider `CC[C@H](C)C(=O)O[C@@H]1[C@H]2C(C)=CC(=O)[C@@H](O)[C@]2(C)[C@H]2[C@@H](O)[C@H](O)[C@@]3(C)OC[C@@]24[C@@H]1OC(=O)[C@H](OC(=O)[C@@H](C)CC)[C@@H]34` [simalikalactone E], for which, in the data set on P. falciparum, the IC50 was 24 to 68 nM. For the same molecule, the “reduction of parasitemia in vivo” value in the data set with parasitemia (0.5 mg/kg IP dosing) and in the data set on parasitemia (1 mg/kg oral dosing) was 50% throughout.

Regarding `C[C@H]1Cc2c([nH]c3cc(Cl)c(F)cc23)[C@@]2(N1)C(=O)Nc1ccc(Cl)cc12` [NITD609, spirotetrahydro-β-carboline NITD609], the clearance rate in data set [8] is listed as 9.8 mL/min/kg.

Consider `CCN(CC)CCCC(C)Nc1ccnc2cc(Cl)ccc12` (centres unmarked) [chloroquine], for which the “apparent volume of distribution” value in data set [9] is given as 200 L/kg.

With `C[C@H]1[C@H](OC(=O)CCC(=O)O)O[C@@H]2O[C@@]3(C)CC[C@H]4[C@H](C)CC[C@@H]1[C@@]24OO3` [artesunate], the half-life result in data set [10] was “less than 10 min”.
